Assay results reported in PubChem BioAssay AID1033 (Sanford-Burnham Center for Chemical Genomics, 2008).
Several values for one entry are separate records, joined by “and”; a condition that tells them apart may be missing. Identical values can stand only once. Activity calls are given as the source filed them. The rule behind the calls is not given here.

Molecular target: Chaperone protein DnaK (Escherichia coli (strain K12)) (UniProt P0A6Y8)
Assay: binders of DnaK substrate-binding domain, biophysical, NMR, chaperone (AID 1033)
Settings: Purified DnaK SBD, NMR ligand binding

Sequence of Chaperone protein DnaK (Escherichia coli (strain K12)) (P0A6Y8 whole entry, looked up, the tested form may be a part): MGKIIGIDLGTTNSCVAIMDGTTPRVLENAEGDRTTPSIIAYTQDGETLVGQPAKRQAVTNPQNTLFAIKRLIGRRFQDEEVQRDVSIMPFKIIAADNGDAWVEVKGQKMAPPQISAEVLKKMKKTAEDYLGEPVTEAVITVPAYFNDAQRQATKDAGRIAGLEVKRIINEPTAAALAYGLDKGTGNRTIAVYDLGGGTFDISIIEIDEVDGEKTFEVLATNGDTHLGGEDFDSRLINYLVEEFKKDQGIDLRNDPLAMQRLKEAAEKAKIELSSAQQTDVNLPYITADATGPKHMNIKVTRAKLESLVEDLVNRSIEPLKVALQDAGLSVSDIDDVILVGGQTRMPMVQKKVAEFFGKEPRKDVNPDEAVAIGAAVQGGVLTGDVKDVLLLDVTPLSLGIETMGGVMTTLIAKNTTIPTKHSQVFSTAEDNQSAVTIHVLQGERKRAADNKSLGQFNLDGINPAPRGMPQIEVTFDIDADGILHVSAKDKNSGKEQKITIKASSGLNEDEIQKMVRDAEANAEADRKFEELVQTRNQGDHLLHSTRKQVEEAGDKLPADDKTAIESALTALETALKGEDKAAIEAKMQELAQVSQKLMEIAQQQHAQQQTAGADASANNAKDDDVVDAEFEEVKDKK

SMILES | Kd
O=S(=O)(Cc1ccccc1)N1CCCCCC1 | > 4 mM (inactive)
O=C1CCCC(=O)N1Cc1ccco1 | > 4 mM (inactive)
O=C(Nc1ccncc1)c1cncc(Br)c1 | > 4 mM (inactive)
Cn1ncc(C(=O)NC2CCCCC2)c1Cl | > 4 mM (inactive)
CSc1ccccc1NC(=O)c1cnccn1 | > 4 mM (inactive)
COc1cc(C/C=C/c2ccccc2)c(OC)cc1O | > 4 mM (inactive)
COc1cc2c(cc1O)CCNC2C (configuration not stated) | > 4 mM (inactive)
C/C=C(/C)C(=O)O[C@@H]1Cc2c(ccc3ccc(=O)oc23)OC1(C)C | > 4 mM (inactive)
Cc1cc(C)n2nc(C(=O)Nc3cccnc3)nc2n1 | > 4 mM (inactive)
Cn1ncc2c(=O)n(CC(=O)c3ccccc3)cnc21 | > 4 mM (inactive)
COc1ccc(C(N)=O)cc1NC(C)=O | > 4 mM (inactive)
Cc1nc2c(=O)[nH]c3ccccc3c2o1 | > 4 mM (inactive)
Cc1c(CO)cnn1-c1ccccc1 | > 4 mM (inactive)
CC(=O)Nc1ccc(Cl)c(C(N)=O)c1 | > 4 mM (inactive)
OCCNC(=S)Nc1ccccc1 | > 4 mM (inactive)
c1ccc(Cc2nnc3sc(-c4cccnc4)nn23)cc1 | > 4 mM (inactive)
Fc1ccc(Br)cc1/C=N/n1cnnc1 | > 4 mM (inactive)
Cc1cc(=O)[nH]c2ccccc12 | > 4 mM (inactive)
CC(=O)OC1CC[C@@]2(C)C(CCC3C2CC[C@]2(C)C(C4=CC(=O)OC4)C(OC(C)=O)CC32O)C1 (some centres not stated) | > 4 mM (inactive)
C/C(N)=C/C(=O)N1CCCCC1 | > 4 mM (inactive)
O=C(O)CCC(=O)NCc1cccnc1 | > 4 mM (inactive)
Cc1onc(-c2c(Cl)cccc2Cl)c1C(N)=O | > 4 mM (inactive)
CCC(C)C(=O)OC1[C@@H]2CC3=C4CC(=O)O[C@@H](c5ccoc5)[C@]4(C)CCC3C(C)(C2=O)[C@@H](CC(=O)OC)C1(C)C (some centres not stated) | > 4 mM (inactive)
COc1ccc2nc(N)sc2n1 | > 4 mM (inactive)
CNc1nnc(Cc2csc(N)n2)s1 | > 4 mM (inactive)

SMILES | Kd
OC[C@H]1O[C@@H](Oc2ccc(O)cc2)[C@H](O)[C@@H](O)[C@@H]1O | > 4 mM (inactive)
Cc1cc(NC(=O)CS(=O)(=O)c2ccccc2)no1 | > 4 mM (inactive)
COc1ccc(NC(=O)C(N)=O)cc1Cl | > 4 mM (inactive)
COc1cc2c3cc1Oc1cc(ccc1O)C[C@@H]1c4c(cc(OC)c(O)c4Oc4ccc(cc4)C[C@@H]3N(C)CC2)CC[N+]1(C)C | > 4 mM (inactive)
O=C1CSC(=NC(=O)c2ccccc2)N1 | > 4 mM (inactive)
Cc1ccccc1-n1c(N)cc(=O)[nH]c1=S | > 4 mM (inactive)
Cc1cc(NC(=O)Cc2c(F)cccc2Cl)no1 | > 4 mM (inactive)
Cc1cc2cc(N)ccc2[nH]1 | > 4 mM (inactive)
CCOc1cc(C)c(Cl)cc1S(=O)(=O)N(C)C | > 4 mM (inactive)
Oc1cc(O)c2c(c1)O[C@H](c1cc(O)c(O)c(O)c1)[C@H](O)C2 | > 4 mM (inactive)
COC(=O)c1cccs1 | > 4 mM (inactive)
CC(=O)Nc1ccn(-c2ccccc2)n1 | > 4 mM (inactive)
O=S(=O)(NCc1ccco1)N1CCOCC1 | > 4 mM (inactive)
CCNC(=S)N1CCCC(C(N)=O)C1 (configuration not stated) | > 4 mM (inactive)
O=C(Nc1ccon1)c1ccc(Cl)s1 | > 4 mM (inactive)
COC(=O)C(O)c1ccccc1 (configuration not stated) | > 4 mM (inactive)
Fc1ccc(NC2=NCCS2)cc1Cl | > 4 mM (inactive)
CN1CCCC1C(=O)O (configuration not stated) | > 4 mM (inactive)
O=C(NCO)c1ccccc1Cl | > 4 mM (inactive)
CC(=O)c1cnc2nc(C(F)(F)F)nn2c1C | > 4 mM (inactive)
CSc1ccccc1NC(=O)c1ccco1 | > 4 mM (inactive)
COC(=O)[C@@H]1C(O)CC[C@H]2CN3CCc4c([nH]c5ccccc45)[C@@H]3C[C@@H]21 (some centres not stated) | > 4 mM (inactive)
NC(=O)Cn1nc2c3c(cccc3c1=O)-c1ccccc1-2 | > 4 mM (inactive)
Cc1csc2nc3ccccc3c(=O)n12 | > 4 mM (inactive)
CC(=O)N1C(=S)NC(=O)/C1=C\c1cccnc1 | > 4 mM (inactive)

SMILES | Kd
COC(=O)c1oc2ccc(Cl)cc2c1NC(C)=O | > 4 mM (inactive)
Nc1ccc(-n2cccn2)cc1 | > 4 mM (inactive)
COc1cc2c(cc1OC)C1=C(C#N)CCC(=O)N1CC2 | > 4 mM (inactive)
Cc1cc(C(=O)NCc2cccs2)cs1 | > 4 mM (inactive)
CC1(C)CN=C(Nc2nc3ccccc3s2)S1 | > 4 mM (inactive)
O=C(NCc1ccccc1F)c1cccs1 | 0.158 mM and < 0.2 mM
Cc1cc(=O)[nH]c(N)n1 | > 4 mM (inactive)
O=C1NCCCC1C(=O)N/N=C/c1ccccc1 (configuration not stated) | > 4 mM (inactive)
Nc1ccccc1N=C1CNC(=O)C1 | > 4 mM (inactive)
COc1cc2ccc(=O)oc2c2ccoc12 | > 4 mM (inactive)
CCOC(=O)c1sc(SC)c2c1CCCC2O (configuration not stated) | > 4 mM (inactive)
S=C(c1ccc(N2CCOCC2)cc1)N1CCCCC1 | > 4 mM (inactive)
Nc1ccc(N2CCOCC2)c(Cl)c1 | > 4 mM (inactive)
Cc1ccc(NC(=O)C2CCN(S(C)(=O)=O)CC2)cc1 | > 4 mM (inactive)
CC(C)NC(=O)Cc1c(O)c2ccccc2[nH]c1=O | > 4 mM (inactive)
Cn1c(NCc2ccco2)nc2ccccc21 | > 4 mM (inactive)
O=C(O)CS(=O)(=O)c1ccccc1 | > 4 mM (inactive)
C=C1CCC2C(CC2(C)C)C(=O)CCC1O (configuration not stated) | > 4 mM (inactive)
Nc1nc(NCc2ccco2)nn1-c1ccccc1 | > 4 mM (inactive)
O=c1ccn(Cc2ccccc2)c(=O)n1Cc1ccccc1 | > 4 mM (inactive)
c1ccc2nc3c(nc2c1)CCc1nonc1-3 | > 4 mM (inactive)
O=C(O)CSc1nnc(-c2cccs2)o1 | > 4 mM (inactive)
COc1cc(O)c2c(=O)cc(-c3ccc(OC)c(-c4c(O)cc(O)c5c(=O)cc(-c6ccc(O)cc6)oc45)c3)oc2c1 | > 4 mM (inactive)
O=C1CCC(C(=O)NCc2ccc(Cl)cc2)N1 (configuration not stated) | > 4 mM (inactive)
NC(=O)c1ccsc1NC(=O)c1cccnc1 | > 4 mM (inactive)

SMILES | Kd
CCc1c(C(=O)Nc2ccncc2)csc1C | > 4 mM (inactive)
NC(=O)c1ccsc1N | > 4 mM (inactive)
O=C(Nc1ccccn1)c1cc(-n2cnnc2)ccc1Cl | > 4 mM (inactive)
CC(=O)N1CCN(C2CCSC2)CC1 (configuration not stated) | > 4 mM (inactive)
O=C(O)C1CNc2ccccc2O1 (configuration not stated) | > 4 mM (inactive)
NC1=NC(=O)C(Cc2ccccc2)S1 (configuration not stated) | > 4 mM (inactive)
O=C(O)CCC(=O)c1cccc2ccccc12 | > 4 mM (inactive)
CN(C)c1nc(N2CCOCC2)nc(N2CCOCC2)n1 | > 4 mM (inactive)
Nc1ccc(S(=O)(=O)N2CCCCC2)cc1 | > 4 mM (inactive)
O=C(OCc1c(Cl)cccc1Cl)c1cnccn1 | > 4 mM (inactive)
CC(C)(C)CC(=O)NC1=NCCS1 | > 4 mM (inactive)
Cn1c(CNc2ccccc2)cc(=O)n(C)c1=O | > 4 mM (inactive)
CC(=O)Oc1c2c(c(CC=C(C)C)c3c1C(=O)C1=C[C@@H]4CC5C(C)(C)OC(C/C=C(\C)C(=O)O)(C4=O)[C@@]15O3)OC(C)(CCC=C(C)C)C=C2 (some centres not stated) | > 4 mM (inactive)
CN1CCC(NC(=O)c2cccnc2)CC1 | > 4 mM (inactive)
OCC1=Cc2ccccc2OC1 | > 4 mM (inactive)
C[C@H](CCC(=O)O)[C@H]1CCC2C3C(CC[C@@]21C)[C@@]1(C)CC[C@@H](O)C[C@H]1C[C@H]3O (some centres not stated) | > 4 mM (inactive)
Oc1cc(O)c2c(c1)O[C@H](c1ccc(O)c(O)c1)[C@H](O)C2 | > 4 mM (inactive)
COC(=O)Nc1ccc2ncn(C)c(=O)c2c1 | > 4 mM (inactive)
Cc1nc(N2CCOCC2)[nH]c(=O)c1C | > 4 mM (inactive)
COC(=O)C[C@@H]1C2(C)C(=O)[C@@H](CC3=C4CC(O)O[C@@H](c5ccoc5)[C@]4(C)CCC32)[C@H](O)C1(C)C (some centres not stated) | > 4 mM (inactive)
CN(C)N1C(=O)c2ccccc2C1=O | > 4 mM (inactive)
CCc1ccccc1OCc1nnc(N)s1 | > 4 mM (inactive)
Cc1noc(C)c1C(=O)Nc1ccc2c(c1)CCC2 | > 4 mM (inactive)
O=c1cc(CO)oc(CN2CCCCC2)c1O | > 4 mM (inactive)
COc1ccc2ccc(=O)oc2c1CC=C(C)C | > 4 mM (inactive)

SMILES | Kd
O=CN1CCN(C(=O)c2ccccc2F)CC1 | > 4 mM (inactive)
CSc1ncc(C(=O)O)n1Cc1ccccc1 | > 4 mM (inactive)
CC(C)(C)c1cc(NC(=O)c2cccnc2)no1 | > 4 mM (inactive)
CC(=O)Nc1cccc(N(C)S(C)(=O)=O)c1 | > 4 mM (inactive)
NCc1ccc(-c2ccccn2)s1 | > 4 mM (inactive)
CC(C)=CCOc1c2occc2cc2ccc(=O)oc12 | > 4 mM (inactive)
CN1CCN(C(=S)c2ccc(N(C)C)cc2)CC1 | > 4 mM (inactive)
Cc1cc(C(=O)NCc2ccccc2Br)no1 | > 4 mM (inactive)
CC(=O)Nc1ccccc1-c1ccccc1NC(C)=O | > 4 mM (inactive)
Cc1nc(N)sc1C(=O)Nc1nccs1 | > 4 mM (inactive)
CSc1cc(C)[nH]c(=O)n1 | > 4 mM (inactive)
Cc1cc(C)n(/N=C\c2cccs2)c(=O)c1C(N)=O | > 4 mM (inactive)
O=c1[nH]cc(NCc2ccco2)c(=O)[nH]1 | > 4 mM (inactive)
Cc1nc2[nH]onc2c2nccc(=O)c12 | > 4 mM (inactive)
O=C(O)CCC(=O)Nc1ccccc1F | > 4 mM (inactive)
CC(=O)Cc1nsc(NC(=O)c2ccc(C)cc2)n1 | > 4 mM (inactive)
C=CC(C)(O)CC/C=C(\C)CCC=C(C)C (configuration not stated) | > 4 mM (inactive)
CC1CN(Cc2ccccn2)CCC1=O (configuration not stated) | > 4 mM (inactive)
O=C(O)c1cnn2ccccc12 | > 4 mM (inactive)
CC(C)=CCc1c2c(c3occ(-c4ccc(O)cc4)c(=O)c3c1O)C=CC(C)(C)O2 | > 4 mM (inactive)
Cc1nc2ccccc2c2c1C(=O)N(N)C2=O | > 4 mM (inactive)
COC(=O)C1CCc2ccccc2N1 (configuration not stated) | > 4 mM (inactive)
